Where two headings read alike, the source gives them in different places.
Tests used:
Type in all cases: biochemical
[1] = target: T1, human platelet 12-lipoxygenase (12-LOX) (Homo sapiens, UniProt P18054); test: Lipoxygenase UV-based inhibitor assay, 12-LOX; details: 10 µM AA, pH 8.0
T1 construct: His6 (N); made in house
T1 sequence (P18054 1-663): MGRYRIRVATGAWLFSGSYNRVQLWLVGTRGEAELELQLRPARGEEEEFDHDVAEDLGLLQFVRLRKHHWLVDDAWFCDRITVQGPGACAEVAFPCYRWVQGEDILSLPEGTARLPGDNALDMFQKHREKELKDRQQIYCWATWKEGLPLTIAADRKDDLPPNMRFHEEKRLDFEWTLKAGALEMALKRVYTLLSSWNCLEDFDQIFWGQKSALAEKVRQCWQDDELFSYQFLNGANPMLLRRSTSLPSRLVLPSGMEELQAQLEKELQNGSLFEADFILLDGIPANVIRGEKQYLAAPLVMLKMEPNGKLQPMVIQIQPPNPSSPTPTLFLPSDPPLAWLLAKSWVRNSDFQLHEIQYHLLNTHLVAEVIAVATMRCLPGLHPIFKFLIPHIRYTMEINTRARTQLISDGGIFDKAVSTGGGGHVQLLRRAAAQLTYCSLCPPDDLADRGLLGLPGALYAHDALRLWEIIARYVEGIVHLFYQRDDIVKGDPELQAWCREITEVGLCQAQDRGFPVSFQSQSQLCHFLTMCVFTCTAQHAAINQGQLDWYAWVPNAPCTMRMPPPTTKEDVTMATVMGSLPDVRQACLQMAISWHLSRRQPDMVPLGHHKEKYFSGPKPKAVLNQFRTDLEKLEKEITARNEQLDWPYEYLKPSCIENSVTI
Protocol: (§1) Human leukocyte 5-lipoxygenase was expressed as a non-tagged protein and used as a crude ammonium sulfate protein fraction, as published previously.
(§2) Inhibitor potencies were evaluated through use of the standard UV-based inhibitor assay. The initial rates were determined by following the formation of the conjugated diene product at 234 nm (ε = 25,000 M^−1 cm^−1) with a Perkin-Elmer Lambda 40 UV/Vis spectrophotometer at one substrate concentration and varying inhibitor concentrations. All reactions were 2 mL in volume and constantly stirred using a magnetic stir bar at room temperature (23°C), with the enzyme specific buffer conditions outlined in Table 1. The substrate used for the various isozymes was arachidonic acid (AA) for 5-LOX, 12-LOX, and 15-LOX-2 and linoleic acid (LA) for 15-LOX-1, where concentrations were quantitatively determined by allowing the enzymatic reaction to go to completion. IC50 values were obtained by determining the initial rate at various inhibitor concentrations and plotting them against inhibitor concentration, followed by a hyperbolic saturation curve fit. The data used for the saturation curves were performed in duplicate or triplicate, depending on the quality of the data. […] Inhibitors were stored at −20°C in DMSO. […] The solvent isotope effect of the inhibitor IC50 was investigated utilizing the same conditions and methods as stated above. The pH of the buffered D2O was determined as reported previously.

[2] = target: T2, Human reticulocyte 15-lipoxygenase-1 (15-LOX-1) (Homo sapiens, UniProt P16050); test: Lipoxygenase UV-based inhibitor assay, 15-LOX-1; details: 10 µM LA, pH 7.5
T2 construct: His6 (N); made in house
T2 sequence (P16050 1-662): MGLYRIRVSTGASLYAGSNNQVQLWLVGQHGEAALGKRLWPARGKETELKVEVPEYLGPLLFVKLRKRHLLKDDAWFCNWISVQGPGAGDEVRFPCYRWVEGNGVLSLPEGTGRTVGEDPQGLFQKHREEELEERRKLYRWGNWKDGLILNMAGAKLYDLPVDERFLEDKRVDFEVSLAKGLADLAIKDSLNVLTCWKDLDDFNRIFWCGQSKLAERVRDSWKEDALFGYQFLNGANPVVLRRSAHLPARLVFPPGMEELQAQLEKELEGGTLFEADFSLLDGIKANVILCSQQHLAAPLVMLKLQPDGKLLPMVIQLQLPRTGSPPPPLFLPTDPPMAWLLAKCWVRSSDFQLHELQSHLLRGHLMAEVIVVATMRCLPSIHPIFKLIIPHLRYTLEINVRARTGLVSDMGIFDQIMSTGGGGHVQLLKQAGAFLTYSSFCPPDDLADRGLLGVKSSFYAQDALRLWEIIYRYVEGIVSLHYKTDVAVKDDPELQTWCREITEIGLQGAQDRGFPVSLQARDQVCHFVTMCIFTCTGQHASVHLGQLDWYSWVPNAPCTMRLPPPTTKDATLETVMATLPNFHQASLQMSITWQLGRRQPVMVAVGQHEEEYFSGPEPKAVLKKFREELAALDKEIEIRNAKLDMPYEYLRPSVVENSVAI
Protocol: as §1, §2

[3] = target: T3, Ovine COX-1 (Ovis aries, UniProt P05979); test: Cyclooxygenase assay (oxygen electrode), COX-1
T3 construct: purchased Cayman chemical 60100
T3 sequence (P05979 25-600): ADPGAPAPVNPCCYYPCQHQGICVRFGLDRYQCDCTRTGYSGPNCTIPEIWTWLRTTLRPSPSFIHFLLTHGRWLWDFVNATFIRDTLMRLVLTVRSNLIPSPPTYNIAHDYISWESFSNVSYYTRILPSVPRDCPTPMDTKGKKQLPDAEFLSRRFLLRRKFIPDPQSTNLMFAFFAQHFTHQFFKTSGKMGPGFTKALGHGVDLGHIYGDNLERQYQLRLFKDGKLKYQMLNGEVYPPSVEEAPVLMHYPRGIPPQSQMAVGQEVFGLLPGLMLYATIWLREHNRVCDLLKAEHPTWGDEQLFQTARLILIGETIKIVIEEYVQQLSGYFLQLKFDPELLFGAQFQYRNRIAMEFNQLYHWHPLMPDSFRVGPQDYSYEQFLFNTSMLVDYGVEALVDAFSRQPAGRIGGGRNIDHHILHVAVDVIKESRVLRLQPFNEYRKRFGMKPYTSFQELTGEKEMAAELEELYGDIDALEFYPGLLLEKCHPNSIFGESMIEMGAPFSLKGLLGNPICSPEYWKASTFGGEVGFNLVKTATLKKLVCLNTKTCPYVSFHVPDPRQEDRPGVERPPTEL
Protocol: Ovine COX-1 (Cat. No. 60100) and human COX-2 (Cat. No. 60122) were purchased from Cayman chemical. Approximately 2 µg of either COX-1 or COX-2 were added to buffer containing 100 µM AA, 0.1 M Tris-HCl buffer (pH 8.0), 5 mM EDTA, 2 mM phenol and 1 µM hematin at 37°C. Data was collected using a Hansatech DW1 oxygen electrode chamber, as described before. Inhibitor or vehicle were mixed with the respective COX in buffer within the electrode cell, the reaction was initiated by the addition of AA, followed by monitoring of rate of oxygen consumption. Ibuprofen, aspirin and indomethacin, and the carrier solvent, DMSO, were used as positive and negative controls, respectively.

[4] = 100 µM AA, pH 8.0, 37°C, oxygen consumption, read-out: COX-1 IC50

Row | SMILES | IC50 [1] [µM] | IC50 [2] [µM] | IC50 [3, 4] [µM] | IC50 [3] [µM]
1 | CC(C)(C)OC(=O)N1CCN(c2ccc(NCc3ccc(-c4ccc(C#N)cc4)o3)cc2)CC1 [Compound 1] | > 150 | > 150 | > 50 | 
2 | CC(=O)N1CCN(c2ccc(NCc3ccc(-c4cccc(Cl)c4)o3)cc2)CC1 [Compound 13] | > 50 | > 50 | > 150 | 
3 | N#Cc1ccc(-c2ccc(CNc3ccc(N4CCCCC4)cc3)o2)cc1 [Compound 14] | > 150 | > 25 | > 150 | 
4 | Cc1cc(C2CCCCC2)n(O)c(=O)c1 [ciclopirox, reference compound] | > 100 | > 100 | > 50 | 
5 | CC(=O)N1CCN(c2ccc(NCC3COC(Cn4ccnc4)(c4ccc(Cl)cc4Cl)O3)cc2)CC1 (centres unmarked) [ketaminazole (16), ketaminazole] | > 150 | > 150 | > 150 | 
6 | CC(=O)N1CCN(c2ccc(OCC3COC(Cn4ccnc4)(c4ccc(Cl)cc4Cl)O3)cc2)CC1 (centres unmarked) [ketoconazole, reference compound] | > 150 | > 50 |  | > 50
7 | CC[C@](O)(c1nnc(NCc2ccc3c(-c4ccc(F)cc4)cc(=O)oc3c2)o1)C(F)(F)F [setileuton, reference compound] | > 150 | > 150 |  | 
